Data: patent US10479780B2, “Aminopyrazole derivatives” (Chugai Seiyaku Kabushiki Kaisha, priority 2015, dated 2019)

Experiments:
Type in all cases: biochemical
[1] = molecular target: T1, human Src enzyme (Homo sapiens, UniProt P12931); assay: Src enzyme inhibitory activity (time-resolved fluorometry, biotinylated peptide phosphorylation); settings: read-out: SRC_IC50
T1 construct: purchased Carna Biosciences, Inc. 08-173
Outline: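 Compounds were tested for blocking tyrosine phosphorylation of a biotinylated peptide substrate by recombinant human Src. Phosphorylated product was quantified by time-resolved fluorometry using europium cryptate and XL665 conjugates, and IC50 was calculated against the compound-free control.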

[2] = molecular target: T2, human Yes1 enzyme (Homo sapiens, UniProt P07947); assay: Yes1 enzyme inhibitory activity (time-resolved fluorometry, biotinylated peptide phosphorylation); settings: read-out: YES_IC50
T2 construct: made in house
Outline: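 Inhibition was expressed against a compound-free control to give IC50, using TR-FRET read-out (Eu-cryptate anti-pTyr antibody, streptavidin-XL665).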

[3] = molecular target: T3, human Lck enzyme (Homo sapiens, UniProt P06239); assay: Lck enzyme inhibitory activity (time-resolved fluorometry, biotinylated peptide phosphorylation); settings: read-out: LCK_IC50
T3 construct: purchased Carna Biosciences, Inc. 08-170
Outline: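 Readout pairs a europium cryptate-labelled anti-phosphotyrosine antibody with XL665-streptavidin, measured by time-resolved fluorescence. IC50 derived from percent inhibition against untreated controls.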

T1 sequence (P12931 whole entry): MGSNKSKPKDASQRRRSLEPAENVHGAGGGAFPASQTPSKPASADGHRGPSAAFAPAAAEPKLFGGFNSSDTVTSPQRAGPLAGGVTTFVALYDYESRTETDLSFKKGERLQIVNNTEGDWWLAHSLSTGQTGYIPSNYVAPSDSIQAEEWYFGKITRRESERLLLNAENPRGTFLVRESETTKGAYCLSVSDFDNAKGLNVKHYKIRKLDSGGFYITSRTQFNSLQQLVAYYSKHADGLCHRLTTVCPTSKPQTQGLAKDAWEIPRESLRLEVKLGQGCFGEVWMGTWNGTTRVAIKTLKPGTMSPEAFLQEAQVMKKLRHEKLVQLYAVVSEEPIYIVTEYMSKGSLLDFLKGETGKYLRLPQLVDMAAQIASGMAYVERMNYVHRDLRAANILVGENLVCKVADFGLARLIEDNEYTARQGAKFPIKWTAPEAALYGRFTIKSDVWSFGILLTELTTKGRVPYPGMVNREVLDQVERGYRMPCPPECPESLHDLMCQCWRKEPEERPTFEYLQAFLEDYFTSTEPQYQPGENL
T2 sequence (P07947 whole entry): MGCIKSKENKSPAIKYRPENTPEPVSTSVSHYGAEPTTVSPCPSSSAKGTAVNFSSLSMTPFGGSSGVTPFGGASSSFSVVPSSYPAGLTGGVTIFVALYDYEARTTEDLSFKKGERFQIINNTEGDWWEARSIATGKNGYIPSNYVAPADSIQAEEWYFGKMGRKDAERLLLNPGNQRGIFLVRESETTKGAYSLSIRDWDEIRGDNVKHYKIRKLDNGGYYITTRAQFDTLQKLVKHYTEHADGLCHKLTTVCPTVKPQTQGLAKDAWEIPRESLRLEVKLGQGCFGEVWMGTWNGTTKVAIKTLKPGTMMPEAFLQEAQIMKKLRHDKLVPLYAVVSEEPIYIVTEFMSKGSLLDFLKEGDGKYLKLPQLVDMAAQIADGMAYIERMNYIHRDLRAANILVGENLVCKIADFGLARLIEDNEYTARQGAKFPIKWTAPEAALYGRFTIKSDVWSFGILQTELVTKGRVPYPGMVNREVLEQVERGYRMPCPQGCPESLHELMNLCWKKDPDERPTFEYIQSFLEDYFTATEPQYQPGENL
T3 sequence (P06239 whole entry): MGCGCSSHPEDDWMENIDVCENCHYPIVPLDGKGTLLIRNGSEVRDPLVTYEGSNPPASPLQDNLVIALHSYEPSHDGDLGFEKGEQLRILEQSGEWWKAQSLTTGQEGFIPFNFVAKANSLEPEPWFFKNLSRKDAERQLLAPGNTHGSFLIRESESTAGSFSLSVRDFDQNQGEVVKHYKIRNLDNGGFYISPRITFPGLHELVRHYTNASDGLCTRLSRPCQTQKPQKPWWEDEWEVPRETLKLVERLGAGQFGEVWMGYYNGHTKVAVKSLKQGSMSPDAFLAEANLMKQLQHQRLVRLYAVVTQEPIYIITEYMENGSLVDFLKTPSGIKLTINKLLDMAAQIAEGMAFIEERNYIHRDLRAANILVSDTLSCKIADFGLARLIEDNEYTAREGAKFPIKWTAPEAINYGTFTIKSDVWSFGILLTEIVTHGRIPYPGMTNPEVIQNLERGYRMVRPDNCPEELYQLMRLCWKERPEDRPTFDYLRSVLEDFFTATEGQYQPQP

IC50 [1]	IC50 [2]	IC50 [3]	Compound
920 nM	52 nM	270 nM	Cc1cc2cc(C(=O)c3cnn(-c4cc(C)c(Oc5ccccc5F)cc4C)c3N)[nH]c2cc1NS(C)(=O)=O [Example 5-1-200, N-[2-[5-amino-1-[4-(2-fluorophenoxy)-2,5-dimethylphenyl]pyrazole-4-carbonyl]-5-methyl-1H-indol-6-yl]methanesulfonamide]
15 nM	0.43 nM	7.2 nM	Cc1cc(Oc2c(F)cccc2F)ncc1-n1ncc(C(=O)c2cc3cc(OC4CCN(C(C)C)CC4)c(Cl)cc3[nH]2)c1N [Example 5-1-205, [5-amino-1-[6-(2,6-difluorophenoxy)-4-methylpyridin-3-yl]pyrazol-4-yl]-[6-chloro-5-(1-propan-2-ylpiperidin-4-yl)oxy-1H-indol-2-yl] methanone]
350 nM	1.9 nM	82 nM	Cc1cc2cc(C(=O)c3cnn(-c4ccc(Oc5ccccc5F)c(C)c4F)c3N)[nH]c2cc1NS(C)(=O)=O [Example 5-1-207, N-[2-[5-ainino-1-[2-fluoro-4-(2-fluorophenoxy)-3-methylphenyl]pyrazole-4-carbonyl]-5-methyl-1H-indol-6-yl]methanesulfonamide]
450 nM	3.7 nM	65 nM	Cc1cc(-n2ncc(C(=O)c3cc4cc(OC5CCN(C(C)C)CC5)c(F)cc4[nH]3)c2N)ccc1Oc1cccc(F)c1 [Example 5-1-208, [5-amino-1-[4-(3-fluorophenoxy)-3-methylphenyl]pyrazol-4-yl]-[6-fluoro-5-(1-propan-2-ylpiperidin-4-yl)oxy-1H-indol-2-yl] methanone]
420 nM	4.4 nM	98 nM	Cc1cc(-n2ncc(C(=O)c3cc4cc(OC5CCN(C(C)C)CC5)c(Cl)cc4[nH]3)c2N)ccc1Oc1cccc(F)c1 [Example 5-1-209, [5-amino-1-[4-(3-fluorophenoxy)-3-methylphenyl]pyrazol-4-yl]-[6-chloro-5-(1-propan-2-ylpiperidin-4-yl)oxy-1H-indol-2-yl] methanone]
220 nM	4.5 nM	60 nM	Cc1cc(-n2ncc(C(=O)c3cc4cc(OC5CCN(C(C)C)CC5)c(Br)cc4[nH]3)c2N)c(F)cc1Oc1ccccc1F [Example 5-1-212, [5-amino-1-[2-fluoro-4-(2-fluorophenoxy)-5-methylphenyl]pyrazol-4-yl]-[6-bromo-5-(1-propan-2-ylpiperidin-4-yl)oxy-1H-indol-2-yl] methanone]
600 nM	9.8 nM	150 nM	Cc1cc2cc(C(=O)c3cnn(-c4ccc(Oc5ccccc5F)c(C)c4C)c3N)[nH]c2cc1NS(C)(=O)=O [Example 5-1-213, N-[2-[5-amino-1-[4-(2-fluorophenoxy)-2,3-dimethylphenyl]pyrazole-4-carbonyl]-5-methyl-1H-indol-6-yl]methanesulfonamide]
82 nM	0.81 nM	6 nM	Cc1cc(-n2ncc(C(=O)c3cc4cc(OC5CCN(C(C)C)CC5)c(N5CCC(N6CCOCC6)CC5)cc4[nH]3)c2N)c(F)cc1Oc1ccccc1F [Example 5-1-215, [5-amino-1-[2-fluoro-4-(2-fluorophenoxy)-5-methylphenyl]pyrazol-4-yl]-[6-(4-morpholin-4-ylpiperidin-1-yl)-5-(1-propan-2-ylpiperidin-4-yl)oxy-1H-indol-2-yl]methanone]
6.4 nM	0.66 nM	7.5 nM	Cc1cc(Oc2c(F)cccc2F)ncc1-n1ncc(C(=O)c2cc3cc(OC4CCN(C5CCC5)CC4)c(Br)cc3[nH]2)c1N [Example 5-1-221, [5-amino-1-[6-(2,6-difluorophenoxy)-4-methylpyridin-3-yl]pyrazol-4-yl]-[6-bromo-5-(1-cyclobutylpiperidin-4-yl)oxy-1H-indol-2-yl] methanone]

The next lines start with the molecule.

Compound	IC50 [1]	IC50 [2]	IC50 [3]
Cc1cc(Oc2c(F)cccc2F)ncc1-n1ncc(C(=O)c2cc3cc(OC4CCN(C(C)C)CC4)c(N4CCC(N5CCOCC5)CC4)cc3[nH]2)c1N [Example 5-1-201, [5-amino-1-[6-(2,6-difluorophenoxy)-4-methylpyridin-3-yl]pyrazol-4-yl]-[6-(4-morpholin-4-ylpiperidin-1-yl)-5-(1-propan-2-ylpiperidin-4-yl)oxy-1H-indol-2-yl]methanone]	3.5 nM	0.25 nM	3.2 nM
Cc1cc(Oc2c(F)cccc2F)ncc1-n1ncc(C(=O)c2cc3cc(OC4CCN(C(C)C)CC4)c(N4CCC(O)CC4)cc3[nH]2)c1N [Example 5-1-202, [5-amino-1-[6-(2,6-difluorophenoxy)-4-methylpyridin-3-yl]pyrazol-4-yl]-[6-(4-hydroxypiperidin-1-yl)-5-(1-propan-2-ylpiperidin-4-yl)oxy-1H-indol-2-yl]methanone]	3.1 nM	0.17 nM	2.8 nM
Cc1cc(Oc2ccccc2F)ccc1-n1ncc(C(=O)c2cc3cc(OC4CCN(C(C)C)CC4)c(F)cc3[nH]2)c1N [Example 5-1-203, [5-amino-1-[4-(2-fluorophenoxy)-2-methylphenyl]pyrazol-4-yl]-[6-fluoro-5-(1-propan-2-ylpiperidin-4-yl)oxy-1H-indol-2-yl]methanone]	7 nM	0.36 nM	6.2 nM
Cc1cc(Oc2c(F)cccc2F)ncc1-n1ncc(C(=O)c2cc3cc(OC4CCN(C(C)C)CC4)c(F)cc3[nH]2)c1N [Example 5-1-204, [5-amino-1-[6-(2,6-difluorophenoxy)-4-methylpyridin-3-yl]pyrazol-4-yl]-[6-fluoro-5-(1-propan-2-ylpiperidin-4-yl)oxy-1H-indol-2-yl] methanone]	10 nM	0.5 nM	6.7 nM
Cc1cc(-n2ncc(C(=O)c3cc4cc(OC5CCN(C(C)C)CC5)c(Br)cc4[nH]3)c2N)ccc1Oc1cccc(F)c1 [Example 5-1-210, [5-amino-1-[4-(3-fluorophenoxy)-3-methylphenyl]pyrazol-4-yl]-[6-bromo-5-(1-propan-2-ylpiperidin-4-yl)oxy-1H-indol-2-yl] methanone]	510 nM	6.5 nM	120 nM
Cc1cc2cc(C(=O)c3cnn(-c4ccc(Oc5ccccc5F)c(F)c4F)c3N)[nH]c2cc1NS(C)(=O)=O [Example 5-1-214, N-[2-[5-amino-1-[2,3-difluoro-4-(2-fluorophenoxy)phenyl]pyrazole-4-carbonyl]-5-methyl-1H-indol-6-yl]methanesulfonamide]	52 nM	0.99 nM	11 nM
Cc1cc(-n2ncc(C(=O)c3cc4cc(OC5CCN(C6CCCC6)CC5)c(Br)cc4[nH]3)c2N)ccc1Oc1ccccc1F [Example 5-1-216, [5-amino-1-[4-(2-fluorophenoxy)-3-methylphenyl]pyrazol-4-yl]-[6-bromo-5-(1-cyclopentylpiperidin-4-yl)oxy-1H-indol-2-yl] methanone]	1000 nM	1.7 nM	47 nM
Cc1cc(-n2ncc(C(=O)c3cc4cc(OCC(F)F)c(C5CCN(S(C)(=O)=O)CC5)cc4[nH]3)c2N)ccc1Oc1ccccc1F [Example 5-1-217, [5-amino-1-[4-(2-fluorophenoxy)-3-methylphenyl]pyrazol-4-yl]-[5-(2,2-difluoroethoxy)-6-(1-methylsulfonylpiperidin-4-yl)-1H-indol-2-yl]methanone]	150 nM	1.4 nM	48 nM
Cc1cc(-n2ncc(C(=O)c3cc4cc(OC5CCN(C6CCC6)CC5)c(Br)cc4[nH]3)c2N)ccc1Oc1ccccc1F [Example 5-1-218, [5-amino-1-[4-(2-fluorophenoxy)-3-methylphenyl]pyrazol-4-yl]-[6-bromo-5-(1-cyclobutylpiperidin-4-yl)oxy-1H-indol-2-yl] methanone]	220 nM	0.64 nM	39 nM
Cc1cc(-n2ncc(C(=O)c3cc4cc(OC5CCN(C6CC6)CC5)c(Br)cc4[nH]3)c2N)ccc1Oc1ccccc1F [Example 5-1-219, [5-amino-1-[4-(2-fluorophenoxy)-3-methylphenyl]pyrazol-4-yl]-[6-bromo-5-(1-cyclopropylpiperidin-4-yl)oxy-1H-indol-2-yl] methanone]	460 nM	1.3 nM	83 nM
Cc1cc(-n2ncc(C(=O)c3cc4cc(OC5CCN(C6COC6)CC5)c(Br)cc4[nH]3)c2N)ccc1Oc1ccccc1F [Example 5-1-220, (5-amino-1-(4-(2-fluorophenoxy)-3-methylphenyl)-1H-pyrazol-4-yl)(6-bromo-5-((1-(oxetan-3-yl)piperidin-4-yl)oxy)-1H-indol-2-yl)methanone]	180 nM	1.5 nM	56 nM
Cc1cc(Oc2c(F)cccc2F)ncc1-n1ncc(C(=O)c2cc3cc(OC4CCN(C5COC5)CC4)c(Br)cc3[nH]2)c1N [Example 5-1-222, [5-amino-1-[6-(2,6-difluorophenoxy)-4-methylpyridin-3-yl]pyrazol-4-yl]-[6-bromo-5-[1-(oxetan-3-yl)plperidin-4-yl]oxy-1H-indol-2-yl] methanone]	4.7 nM	1.3 nM	7.5 nM
Cc1cc(Oc2c(F)cccc2F)ncc1-n1ncc(C(=O)c2cc3cc(OC4CCN(C5CCCC5)CC4)c(Br)cc3[nH]2)c1N [Example 5-1-223, [5-amino-1-[6-(2,6-difluorophenoxy)-4-methylpyridin-3-yl]pyrazol-4-yl]-[6-bromo-5-(1-cyclopentylpiperidin-4-yl)oxy-1H-indol-2-yl] methanone]	7.4 nM	1.5 nM	7.2 nM
